This is an account of results in BindingDB's records for doi:10.1021/jm801395v (Universita Di Siena, 2009).

The structures appear in SMILES notation.

Common to all, as to experiment: Reverse Transcriptase Assay
Experiment [1] deals with T1, Gag-Pol polyprotein [588-1027,Y769I]/[588-1147,Y769I] (Human immunodeficiency virus 1, UniProt P04585, Y769I).
T1 construct: 588-1027; 588-1147
Conditions: pH 7.5; 37 °C. On the procedure: (§1) The inhibition of the RNA-dependent DNA polymerase activity of the HIV-1 reverse transcriptase enzyme was measured using a primer extension assay. The substrate-incorporated radioactivity was quantitated by scintillation counting.

The target of experiment [2] is T2, Gag-Pol polyprotein [588-1027] (Human immunodeficiency virus type 1 group M subtype B (isolate HXB2), UniProt P04585).
T2 construct: 588-1027
Conditions: pH 7.5; 37 °C. On the procedure: as §1

Experiment [3] addresses T3, Gag-Pol polyprotein [588-1027,Y776L]/[588-1147,Y776L] (Human immunodeficiency virus 1, UniProt P04585, Y776L).
T3 construct: 588-1027; 588-1147
On the procedure: as §1

Broadly, the Ki is a dissociation constant, usually derived from enzyme kinetics or from competition with a known ligand. Molecule `CCC1(c2ccc(COc3cccc(Cl)c3)cc2)Oc2cccnc2-n2cccc2C1=O` (stereo not given) [8-[4-(3-chlorophenoxymethyl)phenyl]-8-ethyl-9-oxa-2,14-diazatricyclo[8.4.0.0^{2,6}]tetradeca-1(14),3,5,10,12-pentaen-7-one] returned an inhibition constant (Ki) in experiment [1] of under 10 µM.

With `CCC1(c2ccc(COc3cccc(Cl)c3)cc2)Oc2ccccc2-n2cccc2C1=O` (stereo not given) [8-[4-(3-chlorophenoxymethyl)phenyl]-8-ethyl-9-oxa-2-azatricyclo[8.4.0.0^{2,6}]tetradeca-1(14),3,5,10,12-pentaen-7-one], the inhibition constant (Ki) was under 10 µM in experiment [1] and 0.1 µM in experiment [2]. `CCC1(c2ccc(COc3ccccc3)cc2)Oc2cccnc2-n2cccc2C1=O` (stereo not given) [8-ethyl-8-[4-(phenoxymethyl)phenyl]-9-oxa-2,14-diazatricyclo[8.4.0.0^{2,6}]tetradeca-1(14),3,5,10,12-pentaen-7-one]: the Ki in experiment [1] and in experiment [3] was under 10 µM each time.
